The structures appear in SMILES notation.

One series has as its target T1, Human recombinant MMP-9 (Homo sapiens, UniProt P14780).
T1 construct: made in house; host or cells: MMP-9-transfected HT1080 cells (spent media)
Kind of series: In vitro MMP inhibition analysis (fluorogenic peptide substrate), MMP-9. The series is classed as biochemical. Conditions: human recombinant enzyme; 4 μM substrate (A); apparent Ki without substrate correction. The procedure: (§1) Several compounds and salts were analyzed in an in vitro assay to determine their ability to inhibit the MMP cleavage of peptide substrates. Inhibition constant (Ki) were calculated from the assayed compound-MMP interactions.
(§2) Human recombinant MMP-1, MMP-2, MMP-9, MMP-13, and MMP-14 were used in this assay. All enzymes were prepared in Assignee's laboratories following usual laboratory procedures. Protocols for the preparation and use of these enzymes are available in the scientific literature. See, e.g., Enzyme Nomenclature (Academic Press, San Diego, Calif., 1992) (and the citations therein). See also, Freije et al., J. Biol. Chem., 269(24), 16766-16773 (1994).
The MMP-9 proenzyme was purified by gelatin Sepharose chromatography from spent media of MMP-9-transfected HT1080 cells provided by Dr. Howard Welgus of Washington University (St. Louis, Mo.).
(§3) All MMPs were activated using 4-aminophenylmercuric acetate (“APMA”, Sigma Chemical, St. Louis, Mo.) or trypsin. MMP-9 also was activated using human recombinant MMP-3 (purified in Assignee's laboratory following standard cloning and purification techniques).
(§4) The following fluorogenic, methoxycoumarin-containing polypeptide substrate (A) was used in the MMP inhibition assays:
(§5) MCA-ArgProLeuGlyLeuDpaAlaArgGluArgNH2 (A)
(§6) “MCA” is 7-methoxycoumarin-4-yl acetyl. Substrate (A) was prepared Assignee's laboratory. In the absence of MMP inhibitory activity, the substrate is cleaved at the Gly-Leu peptide bond. This cleavage separates the highly fluorogenic peptide from the 2,4-dinitrophenyl quencher, thus resulting in increase of fluorescent intensity.
(§7) The stock solutions of the assayed compounds and salts were prepared in 1% dimethyl sulfoxide (DMSO). These stock solutions were diluted in Buffer A (100 mM Tris-HCl, 100 mM NaCl, 10 mM CaCl2, 0.05% polyoxyethylene 23 lauryl ether, pH 7.5) to obtain solutions with different compound concentrations, i.e., assay solutions with different concentrations of the assayed MMP inhibitory compound. The experiment controls contained the same amount of Buffer A/DMSO as the assayed sample, but contained none of the tested compound or salt.
(§8) The assays from which the Ki determinations were made were performed as follows. The assayed compound samples were incubated in separate wells of untreated white polystyrene plates (Nunc Nalgene International, Rochester, N.Y.), and analyzed on a Tecan SpectraFlour Plus plate reader. The excitation wavelength was 330 nm, and the emission wavelength -420 nm. All samples (assayed compounds and controls) were incubated in separate plate wells at room temperature for 1 hr in the presence of 4 μM of MMP substrate (A). In the absence of MMP inhibitory activity, substrate (A) was cleaved at the Gly-Leu bond resulting in an increase of relative fluorescence. Inhibition was observed as a reduced rate of this increase in relative fluorescence. […] This protocol is a modification of method by Knight et al., FEBS Lett., 296(3), 263-266 (1992). Apparent inhibitory constants were determined by non-linear regression of reaction velocity as a function of inhibitor and enzyme concentration using Morrison's equation, as described by Kuzmic, P., et al., Anal. Biochem., 286(1):45-50 (2000). Modifications were made in the non-linear regression method to allow a common control reaction rate and effective enzyme concentration to be shared between all dose-response relationships on a given assay plate. Since the substrate concentration was chosen to be at or below the Km, the apparent Ki's from this analysis were reported as Ki's without correction for the influence of substrate.
(§9) The above protocols were used to determine MMP inhibition Ki constants for the compounds in Examples 1, 2, and 4-42 above. All Ki values in Table 3 are given in nM units.

Another series has as its target T2, Human recombinant MMP-14 (Homo sapiens, UniProt P50281).
T2 construct: The catalytic domain enzyme was expressed in E. Coli inclusion bodies; made in house
As to the kind of experiment: In vitro MMP inhibition analysis (fluorogenic peptide substrate), MMP-14. The series is classed as biochemical. Particulars: human recombinant catalytic domain; 4 μM substrate (A); apparent Ki without substrate correction. The procedure:
as §1, §2
The MMP-14 full length cDNA was provided by Dr. Gregory Goldberg of Washington University (St. Louis, Mo.). The catalytic domain enzyme was expressed in E. Coli inclusion bodies, solubilized in urea, purified on a preparative […] reverse phase HPLC column, and then refolded in the presence of zinc acetate and purified for use.
as §3, §4, §5, §6, §7, §8, §9

The target of a further series is T3, Human recombinant MMP-1 (Homo sapiens, UniProt P03956).
T3 construct: made in house; host or cells: MMP-1-transfected HT-1080 cells (spent media)
T3 sequence (P03956 100-469): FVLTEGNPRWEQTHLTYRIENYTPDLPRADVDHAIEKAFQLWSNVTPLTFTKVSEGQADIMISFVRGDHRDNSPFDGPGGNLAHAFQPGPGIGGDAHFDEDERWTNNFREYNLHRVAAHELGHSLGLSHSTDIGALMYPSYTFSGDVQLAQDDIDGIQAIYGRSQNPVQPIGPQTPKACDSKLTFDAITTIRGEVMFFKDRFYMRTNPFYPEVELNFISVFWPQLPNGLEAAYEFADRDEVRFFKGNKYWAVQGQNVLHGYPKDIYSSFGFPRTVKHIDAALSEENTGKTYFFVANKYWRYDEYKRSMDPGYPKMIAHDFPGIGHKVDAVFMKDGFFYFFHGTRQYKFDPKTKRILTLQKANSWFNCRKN
Kind of series: In vitro MMP inhibition analysis (fluorogenic peptide substrate), MMP-1. The series is classed as biochemical. Conditions: human recombinant enzyme; 4 μM substrate (A); apparent Ki without substrate correction. The procedure: as §1, §2
The MMP-1 proenzyme was purified from the spent media of MMP-1-transfected HT-1080 cells provided by Dr. Harold Welgus of Washington University (St. Louis, Mo.). The protein was purified on a zinc chelating column.
as §3, §4, §5, §6, §7, §8, §9

In the next series the target is T4, Human recombinant MMP-2 (Homo sapiens, UniProt P08253).
T4 construct: made in house; host or cells: MMP-2-transfected p2AHT2 cells
T4 sequence (P08253 110-660): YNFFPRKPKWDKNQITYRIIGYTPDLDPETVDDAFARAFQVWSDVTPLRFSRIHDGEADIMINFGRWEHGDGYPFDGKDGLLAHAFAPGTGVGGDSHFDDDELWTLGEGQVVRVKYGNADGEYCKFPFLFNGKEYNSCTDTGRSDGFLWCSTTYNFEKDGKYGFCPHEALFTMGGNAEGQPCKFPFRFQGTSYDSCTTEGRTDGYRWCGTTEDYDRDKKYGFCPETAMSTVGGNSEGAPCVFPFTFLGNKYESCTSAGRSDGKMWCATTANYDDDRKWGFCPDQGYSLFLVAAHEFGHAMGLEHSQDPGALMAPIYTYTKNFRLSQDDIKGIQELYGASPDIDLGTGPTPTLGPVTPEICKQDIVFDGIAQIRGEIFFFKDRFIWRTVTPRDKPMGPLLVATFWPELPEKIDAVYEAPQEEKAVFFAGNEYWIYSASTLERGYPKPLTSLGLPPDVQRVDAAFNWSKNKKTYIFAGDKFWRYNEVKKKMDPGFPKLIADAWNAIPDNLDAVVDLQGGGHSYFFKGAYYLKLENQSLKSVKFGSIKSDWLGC
Kind of series: In vitro MMP inhibition analysis (fluorogenic peptide substrate), MMP-2. The series is classed as biochemical. Particulars: human recombinant enzyme; 4 μM substrate (A); apparent Ki without substrate correction. How it is done:
as §1, §2
The MMP-2 proenzyme was purified by gelatin Sepharose chromatography from MMP-2- transfected p2AHT2 cells provided by Dr. Gregory Goldberg of Washington University (St. Louis, Mo.).
as §3, §4, §5, §6, §7, §8, §9

Series [1] relates to advanced, rapidly progressive, treatment-refractory solid tumor cancers (colorectal, pancreatic, ovarian, and prostate). Conditions: cited from earlier work.

T1 sequence (P14780 107-707 limits assumed): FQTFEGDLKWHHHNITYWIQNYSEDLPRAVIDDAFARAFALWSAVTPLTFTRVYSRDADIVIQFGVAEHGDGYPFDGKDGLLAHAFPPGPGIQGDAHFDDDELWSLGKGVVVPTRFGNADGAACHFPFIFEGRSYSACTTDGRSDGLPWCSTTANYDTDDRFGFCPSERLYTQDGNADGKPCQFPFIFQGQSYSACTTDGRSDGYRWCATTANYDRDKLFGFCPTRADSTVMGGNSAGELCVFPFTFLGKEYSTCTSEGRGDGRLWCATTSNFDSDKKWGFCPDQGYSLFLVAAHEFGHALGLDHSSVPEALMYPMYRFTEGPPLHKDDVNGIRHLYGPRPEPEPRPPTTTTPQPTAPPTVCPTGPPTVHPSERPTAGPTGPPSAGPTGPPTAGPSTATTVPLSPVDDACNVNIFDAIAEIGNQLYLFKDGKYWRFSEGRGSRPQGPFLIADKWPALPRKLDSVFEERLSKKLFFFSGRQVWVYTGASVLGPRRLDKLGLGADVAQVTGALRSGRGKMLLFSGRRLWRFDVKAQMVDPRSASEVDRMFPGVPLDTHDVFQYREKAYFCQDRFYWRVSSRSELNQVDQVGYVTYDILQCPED

Take `O=C(c1ccc(-c2ccc(S(=O)(=O)C3(C(=O)NO)CCOCC3)cn2)cc1)N1CCCCC1` [Example 77]: the Ki at Human recombinant MMP-9 was > 10 µM; at Human recombinant MMP-14, > 10 µM; at Human recombinant MMP-1 it was > 10 µM; on Human recombinant MMP-2, 4.97 µM.
For the molecule `O=C(c1ccc(-c2ccc(S(=O)(=O)C3(C(=O)NO)CCOCC3)cn2)cc1)N1CCOCC1` [Example 80], the Ki at Human recombinant MMP-9 was > 10 µM; on Human recombinant MMP-14, > 10 µM; at Human recombinant MMP-1, > 10 µM; at Human recombinant MMP-2, 1.76 µM.
As for `CNC(=O)[C@@H](NC(=O)[C@H](CC(C)C)[C@H](O)C(=O)NO)C(C)(C)C` [Marimastat], the “effect on cancer-specific antigens used as surrogate markers for biological activity” value in series [1] (Phase I/II studies, patients with advanced solid tumor cancers) is recorded as “dose-related reduction in the rise of cancer-specific antigens”. In addition, in series [1] (clinical trials, patients), the “most common drug-related toxicity” value is “musculoskeletal pain and stiffness”.

The record behind these values is US20040142979A1, “Heteroarylsulfonylmethyl hydroxamic acids and amides and their use as protease inhibitors” (priority 2002, published 2004).
